The record followed here is US10800755B2, “2,6-disubstituted pyridine derivative” (Sumitomo Dainippon Pharma Co., Ltd., priority 2017, dated 2020).

Molecules are shown by their SMILES. Where two headings read alike, the source gives them in different places.

The target in test [1] is T1, human 5-HT1A receptor (Homo sapiens (Human), UniProt P08908). The test is described as follows: Test 1: agonistic activity for human 5-HT1A receptor (aequorin/Gα16 luminescence in CHO-K1 cell). Format: cell-based. Particulars: for Emax: CHO-K1, 100% = 10 μmol/L endogenous ligand; for EC50: CHO-K1 cell, aequorin luminescence. The protocol:
(§1) Test 1: Evaluation of Agonistic Activity for Human 5-HT1A Receptor and Human D4 Receptor
(§2) Aequorin, Gα16 proteins, and each receptor were transiently expressed in CHO-K1 cell (Chinese hamster ovary), and seeded to 384-well plate. The plate was incubated in a CO2 incubator at 37° C. for 24 hours. Each example compound dissolved in DMSO was added thereto, and the change of luminescence amount was measured with Hamamatsu FDSS/μCELL System (Hamamatsu Photonics).

Test [2] deals with T2, human D4 receptor (Homo sapiens (Human), UniProt P21917). The test is described as follows: Test 1: agonistic activity for human D4 receptor (aequorin/Gα16 luminescence in CHO-K1 cell). Format: cell-based. Particulars: for Emax: CHO-K1, 100% = 10 μmol/L endogenous ligand; for EC50: CHO-K1 cell, aequorin luminescence. The protocol:
as §1, §2

Test [3] addresses T1, human 5-HT1A receptor. The test is described as follows: Test 2: binding activity to human 5-HT1A receptor ([3H] 8-OH-DPAT, CHO cell membrane). Conditions: [3H] 8-OH-DPAT; read-out: 5-HT1A binding affinity (Ki value). The protocol:
(§3) Test 2: Evaluation of Binding Activity to Human 5-HT1A Receptor, Human D4 Receptor, and Human D2 Receptor
(§4) CHO cell membrane fraction in which human 5-HT1A receptor, human D4 receptor, and human D2 receptor were expressed was purchased from PerkinElmer Co., Ltd. In the evaluation test of binding, the test compound dissolved in DMSO, each receptor membrane preparation diluted with buffer solution, and [3H] […] The nonspecific binding to each receptor was evaluated by a competition binding experiment in the presence of 10 μmol/L 8-OH-DPAT, 10 μmol/L dopamine, or 10 μmol/L spiperone, respectively.

Test [4] deals with T2, human D4 receptor. The test is described as follows: Test 2: binding activity to human D4 receptor ([3H] dopamine, CHO cell membrane). The protocol: as §3, §4
The target in test [5] is human D2 receptor (Homo sapiens (Human), UniProt P14416). The test is described as follows: Test 2: binding activity to human D2 receptor ([3H] spiperone, CHO cell membrane). Particulars: [3H] spiperone; read-out: D2 binding affinity (Ki value). The protocol:
as §3, §4

[6] abbreviates: [3H] dopamine, read-out: D4 binding affinity (Ki value).

T1 sequence (P08908 whole entry): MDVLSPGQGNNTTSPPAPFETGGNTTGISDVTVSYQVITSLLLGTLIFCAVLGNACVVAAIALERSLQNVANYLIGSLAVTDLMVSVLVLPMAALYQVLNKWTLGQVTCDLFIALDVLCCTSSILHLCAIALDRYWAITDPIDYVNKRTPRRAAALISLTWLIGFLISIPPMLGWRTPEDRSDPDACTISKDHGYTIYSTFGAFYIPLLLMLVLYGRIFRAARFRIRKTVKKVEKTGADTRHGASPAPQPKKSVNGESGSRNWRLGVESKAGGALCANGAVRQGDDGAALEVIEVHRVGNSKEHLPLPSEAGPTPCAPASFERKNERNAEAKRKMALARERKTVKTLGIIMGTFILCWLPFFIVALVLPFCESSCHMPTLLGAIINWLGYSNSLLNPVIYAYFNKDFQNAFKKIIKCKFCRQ
T2 sequence (P21917 whole entry): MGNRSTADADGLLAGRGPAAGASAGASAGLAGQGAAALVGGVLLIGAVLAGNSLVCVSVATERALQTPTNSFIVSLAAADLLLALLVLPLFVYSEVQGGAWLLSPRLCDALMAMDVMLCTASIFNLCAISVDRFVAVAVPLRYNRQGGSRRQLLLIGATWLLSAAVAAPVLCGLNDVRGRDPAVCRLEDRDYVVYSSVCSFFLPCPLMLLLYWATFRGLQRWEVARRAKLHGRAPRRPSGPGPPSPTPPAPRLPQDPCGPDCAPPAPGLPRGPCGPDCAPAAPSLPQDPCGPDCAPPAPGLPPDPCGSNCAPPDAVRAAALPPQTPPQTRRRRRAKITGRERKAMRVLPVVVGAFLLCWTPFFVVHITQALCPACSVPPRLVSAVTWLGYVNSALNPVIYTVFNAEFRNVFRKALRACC
Chain of human D2 receptor (P14416 whole entry): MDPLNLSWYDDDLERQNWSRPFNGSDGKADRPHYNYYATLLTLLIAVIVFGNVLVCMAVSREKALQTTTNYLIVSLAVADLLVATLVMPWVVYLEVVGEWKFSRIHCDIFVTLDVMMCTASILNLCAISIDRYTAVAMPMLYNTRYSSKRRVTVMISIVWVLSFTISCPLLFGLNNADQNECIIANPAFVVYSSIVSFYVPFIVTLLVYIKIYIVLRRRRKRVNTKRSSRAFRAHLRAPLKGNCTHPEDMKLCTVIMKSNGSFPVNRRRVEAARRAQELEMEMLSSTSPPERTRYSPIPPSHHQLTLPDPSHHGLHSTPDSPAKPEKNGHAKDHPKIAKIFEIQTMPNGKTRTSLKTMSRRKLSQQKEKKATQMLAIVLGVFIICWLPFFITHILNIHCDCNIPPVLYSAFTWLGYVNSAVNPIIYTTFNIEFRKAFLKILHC

In the case of `CNc1cccc(C2CCN(CCNC(=O)C3CCOCC3)CC2)n1` [Example 37, N-(2-{4-[6-(Methylamino)pyridin-2-yl]piperidin-1-yl}ethyl)-tetrahydro-2H-pyran-4-carboxamide], the results for the maximal response (Emax) in test [1] and in test [2] were 40% and 57%, respectively. Moreover, the 50% effective concentration (EC50) is 343 nM in test [1] and 52 nM in test [2]. The Ki is 108 nM in test [3], 73 nM in test [4] (setting [6]) and > 10000 nM in test [5].
In the case of `O=C(NCCN1CCC(c2cccc(F)n2)CC1)C1CCOCC1` [Example 32], the maximal response (Emax) was determined as 51% in test [1] and 67% in test [2]. The 50% effective concentration (EC50) in test [1] was determined as 67 nM; in test [2] it was 7 nM. Besides, the figures for the Ki in test [3], in test [4] (setting [6]) and in test [5] were 42 nM, 96 nM and > 10000 nM, respectively.
On to `CO[C@H]1CC[C@H](C(=O)NCCN2CCC(c3cccc(C(F)(F)F)n3)CC2)CC1` [Example 27], for which the Emax worked out at 44% in test [1] and 51% in test [2]. Also, the concentration for a half-maximal effect (EC50) in test [1] came to 570 nM; in test [2] it was 1650 nM. Also, the values for the inhibition constant (Ki) in test [3], in test [4] (setting [6]) and in test [5] were 77 nM, 2470 nM and > 10000 nM, respectively.
Consider `O=C(NCCN1CCC(c2cccc(C(F)(F)F)n2)CC1)C1CCOC1` (stereo not shown) [Example 23], for which the Emax worked out at 28% in test [1] and 59% in test [2]. For the same compound, the values for the EC50 in test [1] and in test [2] were 632 nM and 62 nM, respectively. The values for the Ki in test [3], in test [4] (setting [6]) and in test [5] were 166 nM, 408 nM and > 10000 nM, respectively.
With `Cc1cccc(C2CCN(CCNC(=O)C3CCOC3)CC2)n1` (stereo not shown) [Example 22], the Emax in test [1] was 25%; in test [2], 57%. Moreover, the EC50 was determined as 595 nM in test [1] and 57 nM in test [2]. Besides, the Ki in test [3] is 58 nM; in test [4] (setting [6]), 2240 nM; in test [5], > 10000 nM.
Take `N#Cc1cccc(C2CCN(CCNC(=O)C3CCOCC3)CC2)n1` [Example 35, N-{2-[4-(6-Cyanopyridin-2-yl)piperidin-1-yl]ethyl}-tetrahydro-2H-pyran-4-carboxamide]: the maximal response (Emax) in test [1] came to 27%; in test [2], 52%. Further, the concentration giving a half-maximal response (EC50) stood at 525 nM in test [1] and 64 nM in test [2]. For the same compound, the results for the inhibition constant Ki in test [3], in test [4] (setting [6]) and in test [5] were 278 nM, 2260 nM and > 10000 nM, respectively.
As for `O=C(NCCN1CC=C(c2cccc(C(F)(F)F)n2)CC1)C1CCOCC1` [Example 19], the Emax in test [1] came to 65%; in test [2], 84%. In addition, the half-maximal effective concentration (EC50) in test [1] is < 10 nM; in test [2], 9 nM. The Ki in test [3] was 0.8 nM; in test [4], 8 nM; in test [5], > 10000 nM.
`Cc1cccc(C2CCN(CCNC(=O)C3CCCO3)CC2)n1` (stereo not shown) [Example 24]: the maximal effect (Emax) was 50% in test [1] and 62% in test [2]. For the same compound, the EC50 in test [1] was 67 nM; in test [2], 32 nM. The inhibition constant (Ki) was 27 nM in test [3], 3380 nM in test [4] (setting [6]) and > 10000 nM in test [5].
On to `Nc1cccc(C2CCN(CCNC(=O)C3CCOCC3)CC2)n1` [Example 36, N-{2-[4-(6-Aminopyridin-2-yl)piperidin-1-yl]ethyl}-tetrahydro-2H-pyran-4-carboxamide], for which the Emax in test [1] worked out at 38%; in test [2] it was 58%. The EC50 in test [1] was found to be 279 nM; in test [2], 31 nM. The Ki is 132 nM in test [3], 120 nM in test [4] (setting [6]) and > 10000 nM in test [5].
Consider `COCC(C)(C)C(=O)NCCN1CC=C(c2cccc(C)n2)CC1` [Example 17], for which the Emax in test [1] amounted to 30%; in test [2], 51%. For the same compound, the EC50 in test [1] amounted to 94 nM; in test [2] it was 44 nM. For the same compound, the inhibitory constant (Ki) in test [3] was 26 nM; in test [4], 91 nM; in test [5], > 10000 nM.
